Test system: BJAB cells
Assay: Fc:FasL-induced apoptosis with CD74-derived peptides
Format: cell-based
Settings: after 24 hours, compared to buffer- and unrelated peptide-treated cells
Text: A membrane proximal region of CD74-derived peptides disrupts CD74-Fas complexes. […] The CH-11 binding site was mapped to the membrane-proximal CRD3-domain of Fas.^10 We thus predicted that the membrane-proximal region of CD74 may be involved in the interaction with Fas. We designed four 20 amino acids long peptides with five amino acid overlaps spanning this region of CD74 (FIG. 16A).
The goal of this example was to design and identify peptides that compete with the Fas-CD74 complex in order to enhance Fas-mediated apoptosis. […] In order to better define competing peptides and peptides with apoptosis activity, we tested shorter peptides. We incubated seven amino acid length peptides (7mer 1, 7mer 2, and 7mer3) with BJAB cells and then stimulated apoptosis using recombinant Fas ligand (Fc:FasL).

Substance | Fas ligand-induced apoptosis (7mer peptides)
DKLTVTS [7mer 3] | significantly enhanced levels of Fas ligand-induced apoptosis
GRLDKLT [7mer 2] | significantly enhanced levels of Fas ligand-induced apoptosis
QQQGRLD [7mer 1] | significantly enhanced levels of Fas ligand-induced apoptosis

Reference: US20100266577A1, “Method of Cancer Treatment with Antagonists of FAS Inhibitors” (priority 2007, published 2010)
